Results as given in PubChem BioAssay (NCI).
Several values for one entry are separate records, joined by “and”; a condition that tells them apart may be missing. Identical values can stand only once.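 1) Cells in 96-well plates. 2) Compound, 48 h, 5 concentrations. 3) Linear interpolation between surrounding doses. 4) Unreached endpoint = highest concentration. The concentration for 50% growth inhibition is given as GI50. TGI is the concentration that stops growth completely.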

Assays:
Test in all cases: DTP human tumour cell line panel, 48 h
[1] = tested on: HCT-15 colon
[2] = tested on: CAKI-1 renal
[3] = tested on: MDA-MB-435
[4] = tested on: NCI-H522 lung
[5] = tested on: UO-31 renal
[6] = tested on: M14 melanoma
[7] = tested on: OVCAR-8 ovarian
[8] = tested on: SK-MEL-2 melanoma
[9] = tested on: A549 NSCLC
[10] = tested on: HOP-62 NSCLC

O=c1nc2n(-c3ccc(Cl)cc3)c3ccc([N+](=O)[O-])cc3cc-2c(=O)[nH]1
GI50 [1]: 8840 nM | TGI [1]: > 100 µM | GI50 [2]: 21500 nM | TGI [2]: 60.1 µM | GI50 [3]: 15800 nM | TGI [3]: 37700 nM | GI50 [4]: 22200 nM | TGI [4]: 57.2 µM | GI50 [5]: 20000 nM | TGI [5]: 53.6 µM | GI50 [6]: 20200 nM | TGI [6]: 37.7 µM | GI50 [7]: 33.2 µM | TGI [7]: > 100 µM | GI50 [8]: 55.1 µM | TGI [8]: > 100 µM | GI50 [9]: 30.4 µM | TGI [9]: > 100 µM | GI50 [10]: 6.01 µM | TGI [10]: 22.8 µM

O=C(CN1CCN(CCCOc2c(-c3ccccc3)oc3ccccc3c2=O)CC1)Nc1ccc(Cl)cc1C(=O)c1ccccc1Cl
GI50 [1]: 5480 nM | TGI [1]: 53.8 µM | GI50 [2]: 12900 nM | TGI [2]: 36.9 µM | GI50 [3]: 4130 nM | TGI [3]: 17000 nM | GI50 [4]: 16600 nM | TGI [4]: 57.2 µM | GI50 [5]: 9280 nM | TGI [5]: 29.4 µM | GI50 [6]: 2010 nM | TGI [6]: 4.51 µM | GI50 [7]: 4.33 µM | TGI [7]: 22.2 µM | GI50 [8]: 12.5 µM | TGI [8]: 31 µM | GI50 [9]: 6.37 µM | TGI [9]: > 100 µM | GI50 [10]: 10.4 µM | TGI [10]: 28.1 µM

O=C(CNc1ccc2c(c1)C(=O)c1ccccc1C2=O)Nc1ccc2c(c1)C(=O)c1ccccc1C2=O
GI50 [1]: 312 nM | TGI [1]: 0.972 µM | GI50 [2]: 1500 nM | TGI [2]: 3.03 µM | GI50 [3]: 850 nM | TGI [3]: 2290 nM | GI50 [4]: 153 nM | TGI [4]: 0.318 µM | GI50 [5]: 1670 nM | TGI [5]: 3.1 µM | GI50 [6]: 712 nM | TGI [6]: 2.04 µM | GI50 [7]: 0.423 µM | TGI [7]: 2.03 µM | GI50 [8]: 0.697 µM | TGI [8]: 2 µM | GI50 [9]: 1.68 µM | TGI [9]: 3.58 µM | GI50 [10]: 1.85 µM | TGI [10]: 3.59 µM

CCOC(=O)c1[nH]c(Br)c(-c2ccc(Br)cc2)c1Br
GI50 [1]: 250 nM | TGI [1]: > 100 µM | GI50 [2]: 490 nM | TGI [2]: 3.06 µM and 2.62 µM | GI50 [3]: 99.7 nM | TGI [3]: 546 nM and 289 nM | GI50 [4]: 178 nM | TGI [4]: 3.42 µM and 0.52 µM | GI50 [5]: 1130 nM | TGI [5]: 5.71 µM and 8.57 µM | TGI [6]: 17.9 µM | TGI [7]: 2.65 µM and 2.42 µM | TGI [8]: 2.53 µM | GI50 [9]: 8.15 µM | TGI [9]: 29.8 µM | GI50 [10]: 0.514 µM | TGI [10]: 4.74 µM and 2.81 µM

COc1ncc(-c2ccc3nccc(-c4ccnnc4)c3c2)cc1NS(=O)(=O)c1ccc(F)cc1F
GI50 [1]: 6.32 nM and < 10 nM | TGI [1]: > 4.83 µM and 5.11 µM | GI50 [2]: 5.21 nM and < 10 nM | TGI [2]: 0.746 µM and 1.7 µM | GI50 [3]: 10.5 nM and < 11.7 nM | TGI [3]: 1130 nM and 863 nM | GI50 [4]: 14.7 nM and < 10.4 nM | TGI [4]: 2.16 µM and 2.58 µM | GI50 [5]: 2.13 nM and < 10 nM | GI50 [6]: 13 nM and < 10 nM | TGI [6]: 0.794 µM and 0.485 µM | GI50 [7]: 0.0191 µM and 0.0173 µM | TGI [7]: > 5.42 µM and 3.25 µM | GI50 [8]: 0.0194 µM and < 0.01 µM | TGI [8]: 0.227 µM and 0.15 µM | GI50 [9]: 0.00882 µM and < 0.01 µM | TGI [9]: 1.49 µM and 1.32 µM | GI50 [10]: 0.00803 µM and < 0.0122 µM | TGI [10]: 1.93 µM and 3.02 µM

O=C(/C=C/c1cccnc1)NCCCCC1CCCN(C(=O)c2ccccc2)C1 (stereo unspecified)
GI50 [1]: < 10 nM | TGI [1]: > 100 µM | GI50 [2]: 9000 nM | TGI [2]: > 100 µM | GI50 [3]: < 10 nM | TGI [3]: > 100000 nM | GI50 [4]: < 10 nM | TGI [4]: > 100 µM | GI50 [5]: > 62800 nM | TGI [5]: > 100 µM | GI50 [6]: < 10 nM | TGI [6]: > 100 µM | GI50 [7]: < 0.01 µM | TGI [7]: > 100 µM | GI50 [8]: 5.71 µM | TGI [8]: > 100 µM | GI50 [9]: 0.0752 µM | TGI [9]: > 100 µM | GI50 [10]: > 94.2 µM | TGI [10]: > 100 µM

COc1ccccc1CCN=C1NC(=O)/C(=C/c2ccc3ncccc3c2)S1
GI50 [1]: 1320 nM | TGI [1]: > 25 µM | GI50 [2]: 3520 nM | TGI [2]: > 15.6 µM | GI50 [3]: 1430 nM | TGI [3]: > 25000 nM | GI50 [4]: 2360 nM | TGI [4]: 7.54 µM | GI50 [5]: 5250 nM | TGI [5]: 16.3 µM | GI50 [6]: 8410 nM | TGI [6]: > 25 µM | GI50 [7]: 6.75 µM | TGI [7]: > 25 µM | GI50 [8]: 6.57 µM | TGI [8]: 13.5 µM | GI50 [9]: 5.93 µM | TGI [9]: > 25 µM | GI50 [10]: 8.17 µM | TGI [10]: > 25 µM

CCOC(=O)N1CCc2cc(OC)c(OC)c3c2c1cc1cc(OC)c(OC)cc13
TGI [1]: 37.9 µM | TGI [2]: 84.2 µM | TGI [3]: 2540 nM | TGI [4]: 4.3 µM | TGI [5]: > 100 µM | TGI [6]: 63.6 µM | TGI [7]: > 100 µM | TGI [8]: > 51.8 µM | TGI [9]: > 100 µM | TGI [10]: > 83.6 µM

COc1cc(C)c(Cl)cc1C1=NN(c2ccc(S(N)(=O)=O)cc2)C(/C=C/c2ccccc2)C1 (stereo unspecified)
GI50 [1]: 3110 nM | TGI [1]: > 100 µM | GI50 [2]: 2700 nM | TGI [2]: 19.1 µM | GI50 [3]: 2650 nM | TGI [3]: 8400 nM | GI50 [4]: 2300 nM | TGI [4]: 5.34 µM | GI50 [5]: 2540 nM | TGI [5]: 12.6 µM | GI50 [6]: 4110 nM | TGI [6]: 24.3 µM | GI50 [7]: 3.33 µM | TGI [7]: 19.1 µM | GI50 [8]: 3.24 µM | TGI [8]: 8.75 µM | GI50 [9]: 3.31 µM | TGI [9]: 19.3 µM | GI50 [10]: 3.1 µM | TGI [10]: 11.8 µM
